{"source": "patent US20090012095A1", "about": "“HUMAN N-TYPE CALCIUM CHANNEL BLOCKERS” (Wyeth, priority 2002, published 2009)", "key": {"[1]": {"biological_target": "T1, N-type calcium channel α1B+SFVG (Homo sapiens, UniProt Q00975, INS1237SFVG)", "T1 construct": "expressed in transfected cells; host or cells: Xenopus oocytes", "T1 sequence (Q00975 with tags, fused parts or gaps INS1237SFVG)": "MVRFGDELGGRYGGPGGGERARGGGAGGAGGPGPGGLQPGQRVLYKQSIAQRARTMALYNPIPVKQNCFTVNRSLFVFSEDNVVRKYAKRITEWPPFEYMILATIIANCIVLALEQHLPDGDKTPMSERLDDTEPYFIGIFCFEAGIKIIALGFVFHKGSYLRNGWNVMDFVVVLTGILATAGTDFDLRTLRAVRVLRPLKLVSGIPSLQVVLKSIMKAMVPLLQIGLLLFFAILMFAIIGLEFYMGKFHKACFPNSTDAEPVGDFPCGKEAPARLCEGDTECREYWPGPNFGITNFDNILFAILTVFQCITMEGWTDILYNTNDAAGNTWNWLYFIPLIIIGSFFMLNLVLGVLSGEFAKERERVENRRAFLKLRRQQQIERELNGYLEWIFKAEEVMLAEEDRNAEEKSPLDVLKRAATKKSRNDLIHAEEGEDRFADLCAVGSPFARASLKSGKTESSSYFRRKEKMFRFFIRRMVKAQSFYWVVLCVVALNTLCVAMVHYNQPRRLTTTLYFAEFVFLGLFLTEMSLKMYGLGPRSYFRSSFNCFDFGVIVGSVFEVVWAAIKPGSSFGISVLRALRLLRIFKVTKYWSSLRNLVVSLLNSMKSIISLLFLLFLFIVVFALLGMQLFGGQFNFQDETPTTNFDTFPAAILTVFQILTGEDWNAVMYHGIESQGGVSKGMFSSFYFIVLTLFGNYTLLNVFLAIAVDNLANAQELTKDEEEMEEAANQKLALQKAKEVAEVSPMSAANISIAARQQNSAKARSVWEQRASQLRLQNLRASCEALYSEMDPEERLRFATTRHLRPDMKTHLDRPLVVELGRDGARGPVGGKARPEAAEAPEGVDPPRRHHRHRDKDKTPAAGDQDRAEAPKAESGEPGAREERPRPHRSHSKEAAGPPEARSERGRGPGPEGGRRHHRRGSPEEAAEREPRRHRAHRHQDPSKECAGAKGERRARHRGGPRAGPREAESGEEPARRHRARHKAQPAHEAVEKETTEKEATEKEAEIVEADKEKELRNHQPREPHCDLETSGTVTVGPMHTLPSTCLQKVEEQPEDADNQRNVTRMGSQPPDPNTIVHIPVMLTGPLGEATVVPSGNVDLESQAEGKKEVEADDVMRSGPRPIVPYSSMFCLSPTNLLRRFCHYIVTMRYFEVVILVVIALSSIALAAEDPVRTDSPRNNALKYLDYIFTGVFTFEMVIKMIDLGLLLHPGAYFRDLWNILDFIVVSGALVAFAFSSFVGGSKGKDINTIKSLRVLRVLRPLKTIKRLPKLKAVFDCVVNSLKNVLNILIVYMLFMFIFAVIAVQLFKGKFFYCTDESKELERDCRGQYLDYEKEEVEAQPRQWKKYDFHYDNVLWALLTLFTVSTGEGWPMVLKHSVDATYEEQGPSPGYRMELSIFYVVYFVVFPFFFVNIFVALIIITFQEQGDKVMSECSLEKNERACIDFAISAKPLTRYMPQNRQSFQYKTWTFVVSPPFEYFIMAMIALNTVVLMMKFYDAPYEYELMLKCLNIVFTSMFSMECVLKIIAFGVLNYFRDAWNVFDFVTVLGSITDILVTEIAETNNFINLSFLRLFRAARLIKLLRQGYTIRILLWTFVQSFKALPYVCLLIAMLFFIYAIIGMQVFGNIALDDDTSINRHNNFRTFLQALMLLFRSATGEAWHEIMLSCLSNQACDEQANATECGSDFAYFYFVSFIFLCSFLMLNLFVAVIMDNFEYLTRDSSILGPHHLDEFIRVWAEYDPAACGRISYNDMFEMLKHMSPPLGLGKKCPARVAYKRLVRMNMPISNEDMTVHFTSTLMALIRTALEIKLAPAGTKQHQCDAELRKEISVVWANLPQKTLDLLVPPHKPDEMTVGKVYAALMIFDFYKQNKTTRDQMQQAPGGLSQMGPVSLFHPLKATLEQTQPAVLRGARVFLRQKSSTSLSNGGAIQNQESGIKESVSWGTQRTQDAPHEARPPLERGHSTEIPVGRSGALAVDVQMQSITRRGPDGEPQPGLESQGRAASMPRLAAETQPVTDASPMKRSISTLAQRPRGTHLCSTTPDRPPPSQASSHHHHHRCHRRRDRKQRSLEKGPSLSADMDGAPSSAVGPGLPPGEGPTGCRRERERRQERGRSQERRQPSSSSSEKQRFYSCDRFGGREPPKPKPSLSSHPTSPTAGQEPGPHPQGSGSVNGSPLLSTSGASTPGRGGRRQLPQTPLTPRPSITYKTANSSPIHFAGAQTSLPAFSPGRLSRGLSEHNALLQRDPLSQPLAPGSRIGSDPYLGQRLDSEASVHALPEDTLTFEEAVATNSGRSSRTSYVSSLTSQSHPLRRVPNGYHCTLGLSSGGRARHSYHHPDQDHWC", "assay": "Transient expression and recording from Xenopus oocytes, calcium channel modulation", "assay_type": "cell-based", "conditions": "transient expression", "experimental": "Representative compounds of the formulae herein are screened for activity against […] in an assay essentially as described in J. Neurosci., Aug. 15, 2001, 21(16):5944-5951, W. Xu and D. Lipscombe, using transient expression and recording from Xenopus oocytes. The assay is performed using various calcium channels (e.g., N-type calcium channel α1B+SFVG) whereby the modulation of the calcium channel is measured for each compound.\nThe following IC50 data were obtained for compounds 1 and 2, following the above-referenced protocols (see Table 1)."}, "[2]": {"biological_target": "N-type calcium channel α1B+SFVG (Homo sapiens, UniProt Q00975)", "sequence (Q00975 whole entry)": "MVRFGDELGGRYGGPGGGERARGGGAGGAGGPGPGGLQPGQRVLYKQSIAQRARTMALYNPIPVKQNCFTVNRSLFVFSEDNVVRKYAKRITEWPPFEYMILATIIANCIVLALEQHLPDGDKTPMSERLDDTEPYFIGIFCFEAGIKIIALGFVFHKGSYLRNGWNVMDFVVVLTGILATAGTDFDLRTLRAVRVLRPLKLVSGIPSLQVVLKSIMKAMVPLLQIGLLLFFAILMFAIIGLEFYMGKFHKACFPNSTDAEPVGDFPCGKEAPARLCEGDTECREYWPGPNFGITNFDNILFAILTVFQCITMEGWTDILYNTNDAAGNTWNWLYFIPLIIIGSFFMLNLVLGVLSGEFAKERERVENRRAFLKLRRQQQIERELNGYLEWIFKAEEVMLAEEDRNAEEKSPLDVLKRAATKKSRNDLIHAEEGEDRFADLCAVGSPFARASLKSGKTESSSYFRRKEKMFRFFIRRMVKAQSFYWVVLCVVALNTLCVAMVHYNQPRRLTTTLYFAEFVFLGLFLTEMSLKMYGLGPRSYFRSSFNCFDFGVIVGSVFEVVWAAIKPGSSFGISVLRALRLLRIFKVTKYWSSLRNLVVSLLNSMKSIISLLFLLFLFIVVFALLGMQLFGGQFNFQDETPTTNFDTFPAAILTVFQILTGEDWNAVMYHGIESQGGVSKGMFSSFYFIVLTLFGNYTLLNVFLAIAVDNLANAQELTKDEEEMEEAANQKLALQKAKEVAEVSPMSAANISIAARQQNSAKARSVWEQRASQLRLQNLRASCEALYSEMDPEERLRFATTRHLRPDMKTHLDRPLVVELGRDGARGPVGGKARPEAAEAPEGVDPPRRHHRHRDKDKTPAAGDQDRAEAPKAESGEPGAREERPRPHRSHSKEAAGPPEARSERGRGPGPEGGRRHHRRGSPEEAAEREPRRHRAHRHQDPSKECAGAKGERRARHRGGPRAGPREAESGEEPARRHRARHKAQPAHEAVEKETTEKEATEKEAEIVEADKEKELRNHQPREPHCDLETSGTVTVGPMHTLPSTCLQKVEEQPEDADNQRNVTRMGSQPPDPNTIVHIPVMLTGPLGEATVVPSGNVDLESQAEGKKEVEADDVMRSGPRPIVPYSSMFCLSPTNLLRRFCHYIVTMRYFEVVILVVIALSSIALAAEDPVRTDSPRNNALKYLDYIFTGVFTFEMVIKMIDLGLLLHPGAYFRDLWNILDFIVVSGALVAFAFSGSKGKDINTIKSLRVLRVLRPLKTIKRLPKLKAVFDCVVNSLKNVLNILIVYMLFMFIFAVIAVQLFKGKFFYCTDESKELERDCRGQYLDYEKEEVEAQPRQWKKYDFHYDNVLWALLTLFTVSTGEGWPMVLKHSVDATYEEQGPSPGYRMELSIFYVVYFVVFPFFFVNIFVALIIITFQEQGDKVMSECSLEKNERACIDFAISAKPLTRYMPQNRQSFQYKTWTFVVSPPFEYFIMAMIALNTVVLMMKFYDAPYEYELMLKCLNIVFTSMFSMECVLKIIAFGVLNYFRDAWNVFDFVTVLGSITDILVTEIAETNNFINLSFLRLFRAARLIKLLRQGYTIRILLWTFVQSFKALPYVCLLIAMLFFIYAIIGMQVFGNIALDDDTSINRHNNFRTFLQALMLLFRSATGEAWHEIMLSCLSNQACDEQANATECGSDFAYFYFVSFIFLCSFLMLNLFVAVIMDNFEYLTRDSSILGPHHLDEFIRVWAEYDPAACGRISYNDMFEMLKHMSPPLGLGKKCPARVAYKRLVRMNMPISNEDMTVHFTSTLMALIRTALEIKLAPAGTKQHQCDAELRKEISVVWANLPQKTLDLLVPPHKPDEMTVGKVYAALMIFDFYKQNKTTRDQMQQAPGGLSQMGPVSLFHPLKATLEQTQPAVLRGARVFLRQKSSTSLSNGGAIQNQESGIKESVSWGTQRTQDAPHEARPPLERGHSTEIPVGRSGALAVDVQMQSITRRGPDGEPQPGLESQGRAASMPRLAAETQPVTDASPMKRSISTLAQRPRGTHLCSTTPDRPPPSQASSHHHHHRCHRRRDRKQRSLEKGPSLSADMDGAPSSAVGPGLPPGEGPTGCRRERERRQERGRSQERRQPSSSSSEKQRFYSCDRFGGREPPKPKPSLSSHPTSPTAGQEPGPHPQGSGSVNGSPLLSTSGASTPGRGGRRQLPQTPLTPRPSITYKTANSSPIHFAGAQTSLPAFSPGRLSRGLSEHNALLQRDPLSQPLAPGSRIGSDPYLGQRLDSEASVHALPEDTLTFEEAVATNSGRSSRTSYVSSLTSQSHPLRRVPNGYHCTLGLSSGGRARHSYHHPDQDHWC", "assay": "Calcium channel modulation in HEK298 cells", "assay_type": "cell-based"}}, "data": [{"smiles": "O=C(CCCCC(c1ccccc1)c1ccccc1)N1CCC(NCc2ccccc2)CC1", "note": "[Compound 2]", "values": [{"measurement": "IC50", "setting": "[1]", "result": 4.16, "unit": "µM"}]}, {"smiles": "COc1cc(CN2CCN(CCCCCC(c3ccc(F)cc3)c3ccc(F)cc3)CC2)cc(OC)c1OC", "note": "[Compound 1]", "values": [{"measurement": "IC50", "setting": "[1]", "result": 7.13, "unit": "µM"}, {"measurement": "IC50", "setting": "[2]", "result": 0.19, "unit": "µM"}]}]}
